Results: US9943525B2, “Composition for reducing cell senescence comprising Rho-kinase inhibitor and use thereof” (Samsung Electronics Co., Ltd., priority 2014, dated 2018)

Tests used:
[1] = test system: senescent progeric fibroblasts (passage 17); test: lipofuscin autofluorescence by flow cytometry; format: cell-based, human; conditions: 4 weeks, vs control, p<0.05, FIG. 18
Description: Progeric fibroblasts (Hutchinson-Gilford Progeria Syndrome Skin Fibroblasts, Coriell Cell Repositories, AG03198 B) were cultured in Dulbecco's Modified Eagle's Media (DMEM) supplemented with 10% fetal bovine serpm (FBS) and 100 unit/ml of penicillin, and 100 μg/ml of streptomycin (two antibiotics are purchased from Gibro-BRL and Grand Island, N.Y.) in a 5% CO2 incubator at 37° C. Subculturing was initiated when the cells were approximately 85% confluent in plates. Early subcultures were performed at a split ratio of 1:4, and later subcultures were performed at a split ratio of 1:2. When cell doubling time was 14 days, the cells were regarded as senescent progeric fibroblasts (cell passages 16 to 17).
(§1) In addition, the amounts of lipofuscin accumulated in the cultured cells were measured. Senescent progeric fibroblasts (passage 17) were cultured in the presence of 5 μM of Y-27632, 5 μM of FASUDIL, and 0.5 μM of SR3677 for 4 weeks in a 5% CO2 incubator at 37° C. The culture media were changed at every 4 days with new culture media supplemented with 5 μM of Y-27632, 5 μM of FASUDIL, and 0.5 μM of SR3677. Since lipofuscin has autofluorescence characteristics, light having a wavelength of 488 nm was irradiated to the cells by using a FACSCaliber (Beckton Dickinson) and light emission at 520 nm was measured. The results were analyzed using Cell Quest 3.2 software (Beckton Dickinson). FIG. 18 is a graph displaying amounts of lipofuscin in progeric fibroblasts (passage 17) cultured in the presence of Rho-kinase inhibitors Y-27632 (5 μM), Fasudil (5 μM), and SR3677 (0.5 μM). […] In FIG. 18, * indicates statistically significant (p<0.05).

[2] = test system: senescent myoblasts (11 cell passages); test: lipofuscin autofluorescence by flow cytometry; format: cell-based, Human; conditions: 4 weeks, vs control, p<0.05, FIG. 14
Description: (§2) Myoblast cell lines (Human Skeletal Muscle Myoblasts, Lonza CC-2580 LOT:0000387550) were cultured in SkBM™-2 Basal Media (Lonza CC-3246) including an SkGM™-2 SingleQuots™ Kit (Lonza CC-3244) on plates coated with Collagen Type I (Greiner Bio One, 658950) in a 5% CO2 incubator at 37° C. Subculture was initiated when the cells were approximately 85% confluent in plates. Early subcultures were performed at a split ratio of 1:4, and later subcultures were performed at a split ratio of 1:2. When cell doubling time was 14 days, the cells were regarded as senescent myoblasts (cell passages 10 to 12).
as §1, with “addition,” for “addition, the”, “myoblasts (11 cell passages)” for “progeric fibroblasts (passage 17)”, “14” for “18”, “14,” for “18,”

[3] = test system: senescent fibroblasts (after 37 cell passages); test: mitochondrial membrane potential (JC-1) by flow cytometry; format: cell-based, human; conditions: vs control, p<0.05, FIG. 11
Description: Mitochondrial membrane potentials were measured using a MitoProbe™ JC-1 Assay kit for Flow Cytometry (Life technologies, T3168) according to manufacturer's manuals. JC-1 is accumulated in mitochondria in a potential-dependent manner, and this accumulation is identified by fluorescence emission shift from green (about 529 nm) to red (about 590 nm). As a result, mitochondrial depolarization is identified by a decrease in a red/green fluorescence ratio. The mitochondrial membrane potentials were measured by excitation at 488 nm using a FACSCaliber (Beckton Dickinson) and using a flow cytometer by using 530/30 nm and 585/42 nm band pass filters. The results were analyzed using Cell Quest 3.2 software (Beckton Dickinson). FIG. 11 is a graph displaying action potentials of mitochondria. […] In FIG. 11, * indicates statistically significant (p<0.05). In FIG. 11, the vertical axis is mitochondrial membrane potential. “MMP” refers to mitochondria membrane potential.

[4] = test system: senescent myoblasts (11 cell passages); test: mitochondrial ROS (MitoSOX) by flow cytometry; format: cell-based, Human; conditions: vs control, p<0.05, FIG. 15
Description: as §2
Senescent cells were seeded on each well of a 6-well plate coated with Collagen Type I (Greiner Bio One, 657950) in a concentration of 2,000 cells/well. Senescent myoblasts (passage 11) were cultured in the presence of 5 μM of Y-27632, 5 μM of FASUDIL, and 0.5 μM of SR3677 for 4 weeks in a 5% CO2 incubator at 37° C. The culture media were changed at every 4 days with new culture media supplemented with 5 μM of Y-27632, 5 μM of FASUDIL, and 0.5 μM of SR3677. A negative control group was prepared in the same manner, except that 0.05 (v/v) % of DMSO was used.
ROS were measured using a 0.2 μM MitoSOX (Invitrogen, M3608) according to manufacturer's manuals. Light having a wavelength of 520 nm was irradiated to the cells using a FACSCaliber (Beckton Dickinson), and light emission was measured at 580 nm. The results were analyzed using Cell Quest 3.2 software (Beckton Dickinson).

## O=S(=O)(c1cccc2cnccc12)N1CCCNCC1 [FASUDIL, 5-(1,4-diazepane-1-sulfonyl)isoquinoline]
[1]; 5 μM
  amounts of lipofuscin: significantly reduced
[2]; 5 μM
  amounts of lipofuscin: significantly reduced
[3]; 5 μM
  action potentials of mitochondria (mitochondrial membrane potential): significantly increased
[4]; 5 μM
  ROS: significantly reduced

## CN(C)CCOc1cc(-c2cn[nH]c2)ccc1NC(=O)C1COc2ccccc2O1 (stereo not drawn) [SR3677]
[1]; 0.5 μM
  amounts of lipofuscin: significantly reduced
[2]; 0.5 μM
  amounts of lipofuscin: significantly reduced
[3]; 0.5 μM
  action potentials of mitochondria (mitochondrial membrane potential): significantly increased
[4]; 0.5 μM
  ROS: significantly reduced

## C[C@@H](N)[C@H]1CC[C@H](C(=O)Nc2ccncc2)CC1 [Y-27632, (1R,4R)-4-((R)-1-aminoethyl)-N-(pyridin-4-yl)cyclohexanecarboxamide]
[1]; 5 μM
  amounts of lipofuscin: significantly reduced
[2]; 5 μM
  amounts of lipofuscin: significantly reduced
[3]; 5 μM
  action potentials of mitochondria (mitochondrial membrane potential): significantly increased
[4]; 5 μM
  ROS: significantly reduced
